Assay results as given in patent US9346761B2, “Arginine methyltransferase inhibitors and uses thereof” (Epizyme, Inc., priority 2013, dated 2016).

What was measured:
Full-length human PRMT3 = target: T1, Full-length human PRMT3 (Homo sapiens, UniProt O60678); assay: PRMT3 biochemical assay (3H-SAM Flashplate, peptide substrate)
T1 construct: GST-tagged PRMT3; made in house; host or cells: E. coli BL21(DE3) Gold (pGEX-KG)
Excerpt: (§1) General Materials. S-adenosylmethionine (SAM), S-adenosylhomocysteine (SAH), bicine, Tween20, dimethylsulfoxide (DMSO), bovine skin gelatin (BSG),), isopropyl-β-D-thiogalactopyranoside (IPTG), and Tris(2-carboxyethyl)phosphine hydrochloride solution (TCEP) were purchased from Sigma-Aldrich at the highest level of purity possible. ^3H-SAM was purchase from American Radiolabeled Chemicals with a specific activity of 80 Ci/mmol. 384-well streptavidin Flashplates were purchased from PerkinElmer.
Substrates. Peptide containing the classic RMT substrate motif was synthesized with an N-terminal linker-affinity tag motif and a C-terminal amide cap by 21st Century Biochemicals. The peptide was purified by high-performance liquid chromatography (HPLC) to greater than 95% purity and confirmed by liquid chromatography mass spectrometry (LC-MS). The sequence was Biot-Ahx-[…]-amide (SEQ ID NO.:11).
Molecular Biology: : Full-length human PRMT3 (NM_005788.3) isoform 1 transcript clone was amplified from an HEK 293 cDNA library and subcloned into pGEX-KG (GE Life Sciences). The resulting construct encodes an N-terminal GST tag and a thrombin cleavage sequence ([…] […] […] […]) (SEQ ID NO.:12) fused directly to Cys 2 of PRMT3.
Protein Expression. E. coli (BL21(DE3) Gold, Stratagene) made competent by the CaCl2 method were transformed with the PRMT3 construct and ampicillin selection. Protein over-expression was accomplished by growing the PRMT3 expressing E. coli clone and inducing expression with 0.3 mM IPTG at 16° C. The culture was grown for 12 hours, harvested by centrifugation, and stored at −80° C. for purification.
Protein Purification. […] GST-tagged PRMT3 eluted with 25-400 mM phosphate in buffer C. Protein was concentrated and buffer was exchanged to 20 mM Tris, 150 mM NaCl, 5% glycerol, 5 mM β-mercaptoethanol, pH7.8 by ultrafiltration. The purity of recovered protein was 70%.
(§2) General Procedure for PRMT3 Enzyme Assays on Peptide Substrates. The assays were all performed in a buffer consisting of 20 mM Bicine (pH=7.6), 1 mM TCEP, 0.005% BSG, and 0.002% Tween 20, prepared on the day of use. Compounds in 100% DMSO (1 ul) were spotted into a polypropylene 384-well V-bottom plates (Greiner) using a Platemate Plus outfitted with a 384-channel head (Thermo Scientific). DMSO (1 ul) was added to Columns 11, 12, 23, 24, rows A-H for the maximum signal control and 1 ul of SAH, a known product and inhibitor of PRMT3, was added to columns 11, 12, 23, 24, rows I-P for the minimum signal control. A cocktail (40 ul) containing the PRMT3 enzyme was added by Multidrop Combi (Thermo-Fisher). The compounds were allowed to incubate with PRMT3 for 30 min at room temperature, then a cocktail (10 ul) containing SAM and peptide was added to initiate the reaction (final volume=51 ul). The final concentrations of the components were as follows: PRMT3 was 0.5 nM, ^3H-SAM was 100 nM, non-radiolabeled SAM was 1.8 uM, peptide was 330 nM, SAH in the minimum signal control wells was 1 mM, and the DMSO concentration was 2%. The assays were stopped by the addition of potassium chloride (10 ul) to a final concentration of 100 mM. 50 ul of the reaction in the 384-well polypropylene plate was then transferred to a 384-well Flashplate and the biotinylated peptides were allowed to bind to the streptavidin surface for at least 1 hour before being washed once with 0.1% Tween20 in a Biotek ELx405 plate washer. The plates were then read in a PerkinElmer TopCount plate reader to measure the quantity of ^3H-labeled peptide bound to the Flashplate surface, measured as disintegrations per minute (dpm) or alternatively, referred to as counts per minute (cpm).
(§3) Where dpm=disintegrations per minute, cmpd=signal in assay well, and min and max are the respective minimum and maximum signal controls.
Where top and bottom are the normally allowed to float, but may be fixed at 100 or 0 respectively in a 3-parameter fit. […]

[1] = system: mono-methyl arginine in RKO cells; assay: RKO methylation assay, In Cell Western for mono-methyl arginine and DNA content; assay type: cell-based; conditions: Homo sapiens; In Cell Western, RKO cells, 72 hours, percent activation of mono-methyl arginine signal; read-out: EC30
Excerpt: RKO adherent cells were purchased from ATCC (American Type Culture Collection), Manassas, Va., USA. DMEM/Glutamax medium, penicillin-streptomycin, heat inactivated fetal bovine serum, 0.05% trypsin and D-PBS were purchased from Life Technologies, Grand Island, N.Y., USA. Odyssey blocking buffer, 800CW goat anti-rabbit IgG (H+L) antibody, and Licor Odyssey infrared scanner were purchased from Licor Biosciences, Lincoln, Nebr., USA. Mono-methyl arginine antibody was purchased from Cell Signaling Technology, Danvers, Mass., USA. Methanol was purchased from VWR, Franklin, Mass., USA. 10% Tween 20 was purchased from KPL, Inc., Gaithersburg, Md., USA. […] was purchased from Biostatus Limited, Leicestershire, UK.
RKO adherent cells were maintained in growth medium (DMEM/Glutamax medium supplemented with 10% v/v heat inactivated fetal bovine serum and 100 units/mL penicillin-streptomycin) and cultured at 37° C. under 5% CO2
Cell Treatment, in Cell Western (ICW) for Detection of Mono-Methyl Arginine and DNA Content. […] Compound (100 nL) from a 96-well source plate was added directly to 384 well cell plate. Plates were incubated at 37° C., 5% CO2 for 72 hours. After three days of incubation, plates were brought to room temperature outside of the incubator for ten minutes and blotted on paper towels to remove cell media. 50 μL of ice cold 100% methanol was added directly to each well and incubated for 30 min at room temperature. After 30 min, plates were transferred to a Biotek EL406 plate washer and washed 2 times with 100 μL per well of wash buffer (1×PBS). Next 60 μL per well of Odyssey blocking buffer (Odyssey Buffer with 0.1% Tween 20 (v/v)) were added to each plate and incubated 1 hour at room temperature. Blocking buffer was removed and 20 μL per well of primary antibody was added (mono-methyl arginine diluted 1:200 in Odyssey buffer with 0.1% Tween 20 (v/v)) and plates were incubated overnight (16 hours) at 4° C. Plates were washed 5 times with 100 μL per well of wash buffer. […] The plates were washed 5 times with 100 μL per well wash buffer then 2 times with 100 μL per well of water. Plates were allowed to dry at room temperature then imaged on the Licor Odyssey machine which measures integrated intensity at 700 nm and 800 nm wavelengths. Both 700 and 800 channels were scanned.
Calculations: First, the ratio for each well was determined by:
Each plate included fourteen control wells of DMSO only treatment (minimum activation) as well as fourteen control wells for maximum activation treated with 20 μM of a reference compound. The average of the ratio values for each control type was calculated and used to determine the percent activation for each test well in the plate. Reference compound was serially diluted three-fold in DMSO for a total of nine test concentrations, beginning at 20 μM. Percent activation was determined and EC30 curves were generated using triplicate wells per concentration of compound.

Full-length human PRMT6 = target: T2, Full-length human PRMT6 (Homo sapiens, UniProt Q96LA8); assay: PRMT6 biochemical assay (3H-SAM Flashplate, peptide substrate)
T2 construct: Flag-PRMT6-His was eluted with 200 ug/ml FLAG peptide in the same buffer; made in house; host or cells: HEK 293F cells (BacMam virus, pFastBacMam)
Excerpt: as §1, with “(BSG), sodium butyrate” for “(BSG),), isopropyl-β-D-thiogalactopyranoside (IPTG),”
Substrates. Peptide representative of human histone H4 residues 36-50 was synthesized with an N-terminal linker-affinity tag motif and a C-terminal amide cap by 21st Century Biochemicals.
The amplified gene was subcloned into pFastBacMam (Viva Biotech).
Protein Expression. Recombinant baculovirus were generated according to Bac-to-Bac kit instructions (Life Technologies). […] Infections were carried out at 37° C. for 48 hours, harvested by centrifugation, and stored at −80° C. for purification.
Protein Purification. […] Column was washed with 20 mM imidazole in the same buffer and Flag-PRMT6-His was eluted with 150 mM imidazole. Pooled fractions were dialysed against buffer Ni-A and further purified by anti-flag M2 affinity chromatography. Flag-PRMT6-His was eluted with 200 ug/ml FLAG peptide in the same buffer. Pooled fractions were dialysed in 20 mM Tris, 150 mM NaCl, 10% glycerol and 5 mM β-mercaptoethanol, pH 7.8.
as §2, with “PRMT6” for “PRMT3”, “Compounds in 100% DMSO (1 ul) were spotted into a polypropylene 384-well V-bottom plates (Greiner) using a Platemate Plus outfitted with a 384-channel head (Thermo Scientific).” left out, “PRMT6,” for “PRMT3,”, “The final concentrations of the components were as follows: PRMT3 was 0.5 nM, ^3H-SAM was 100 nM, non-radiolabeled SAM was 1.8 uM, peptide was 330 nM, SAH in the minimum signal control wells was 1 mM, and the DMSO concentration was 2%.” left out, “non-radiolabeled SAM” for “potassium chloride”, “400 uM, which dilutes the ^3H-SAM to a level where its incorporation into the peptide substrate is no longer detectable.” for “100 mM.”
as §3
(§4) Where top and bottom are the normally allowed to float, but may be fixed at 100 or 0 respectively in a 3-parameter fit. The Hill Coefficient normally allowed to float but may also be fixed at 1 in a 3-parameter fit. Y is the % inhibition and X is the compound concentration.

[2] = target: T3, Full-length human PRMT1 isoform 1 (Homo sapiens, UniProt Q99873); assay: PRMT1 biochemical assay (3H-SAM Flashplate, peptide substrate)
T3 construct: GST-tagged PRMT1; made in house; host or cells: High Five insect cells (baculovirus, pFastBacI)
Excerpt: as §1, with “(BSG),” for “(BSG),), isopropyl-β-D-thiogalactopyranoside (IPTG),”
Protein Expression. Recombinant baculovirus were generated according to Bac-to-Bac kit instructions (Life Technologies). […] Infections were carried out at 27° C. for 48 hours, harvested by centrifugation, and stored at −80° C. for purification.
Protein Purification. […] GST-tagged PRMT1 was eluted with 50 mM Tris, 2 mM glutathione, pH 7.8, dialysed in buffer A and concentrated to 1 mg/mL.
as §2, with “PRMT1” for “PRMT3”, “Compounds in 100% DMSO (1 ul) were spotted into a polypropylene 384-well V-bottom plates (Greiner) using a Platemate Plus outfitted with a 384-channel head (Thermo Scientific).” left out, “PRMT1,” for “PRMT3,”, “The final concentrations of the components were as follows: PRMT3 was 0.5 nM, ^3H-SAM was 100 nM, non-radiolabeled SAM was 1.8 uM, peptide was 330 nM, SAH in the minimum signal control wells was 1 mM, and the DMSO concentration was 2%.” left out, “non-radiolabeled SAM” for “potassium chloride”, “300 uM, which dilutes the ^3H-SAM to a level where its incorporation into the peptide substrate is no longer detectable.” for “100 mM.”
as §3, §4

T1 sequence (O60678 with tags, fused parts or gaps): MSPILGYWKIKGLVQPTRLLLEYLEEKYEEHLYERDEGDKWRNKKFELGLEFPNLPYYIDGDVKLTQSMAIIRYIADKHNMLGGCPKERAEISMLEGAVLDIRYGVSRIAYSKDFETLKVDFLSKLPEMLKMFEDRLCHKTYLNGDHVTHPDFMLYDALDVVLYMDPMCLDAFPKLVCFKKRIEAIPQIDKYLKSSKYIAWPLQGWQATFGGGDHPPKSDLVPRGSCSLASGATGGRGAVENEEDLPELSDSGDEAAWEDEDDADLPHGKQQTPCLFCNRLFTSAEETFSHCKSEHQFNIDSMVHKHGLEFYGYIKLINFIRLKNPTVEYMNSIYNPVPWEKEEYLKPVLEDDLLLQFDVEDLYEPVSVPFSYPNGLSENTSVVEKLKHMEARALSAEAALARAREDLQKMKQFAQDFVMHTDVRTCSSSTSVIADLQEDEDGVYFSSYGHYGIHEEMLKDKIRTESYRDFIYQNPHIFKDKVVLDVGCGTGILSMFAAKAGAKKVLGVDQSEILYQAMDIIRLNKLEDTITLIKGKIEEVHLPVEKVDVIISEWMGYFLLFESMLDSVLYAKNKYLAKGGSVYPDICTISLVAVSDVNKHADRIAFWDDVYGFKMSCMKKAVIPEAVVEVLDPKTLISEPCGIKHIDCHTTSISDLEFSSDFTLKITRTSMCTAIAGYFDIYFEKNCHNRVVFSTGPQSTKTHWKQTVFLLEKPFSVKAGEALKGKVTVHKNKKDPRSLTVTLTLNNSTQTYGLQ
T2 sequence (Q96LA8 with tags, fused parts or gaps): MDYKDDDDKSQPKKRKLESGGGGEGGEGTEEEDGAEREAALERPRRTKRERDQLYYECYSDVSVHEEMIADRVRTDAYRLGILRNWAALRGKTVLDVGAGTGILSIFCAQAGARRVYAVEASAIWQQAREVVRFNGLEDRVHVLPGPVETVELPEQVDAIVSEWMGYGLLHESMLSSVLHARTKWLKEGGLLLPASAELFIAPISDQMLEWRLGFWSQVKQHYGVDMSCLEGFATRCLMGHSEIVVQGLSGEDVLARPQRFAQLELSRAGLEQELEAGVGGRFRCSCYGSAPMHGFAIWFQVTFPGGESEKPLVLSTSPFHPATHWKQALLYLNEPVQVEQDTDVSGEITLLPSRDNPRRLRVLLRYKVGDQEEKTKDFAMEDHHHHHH
T3 sequence (Q99873 with tags, fused parts or gaps): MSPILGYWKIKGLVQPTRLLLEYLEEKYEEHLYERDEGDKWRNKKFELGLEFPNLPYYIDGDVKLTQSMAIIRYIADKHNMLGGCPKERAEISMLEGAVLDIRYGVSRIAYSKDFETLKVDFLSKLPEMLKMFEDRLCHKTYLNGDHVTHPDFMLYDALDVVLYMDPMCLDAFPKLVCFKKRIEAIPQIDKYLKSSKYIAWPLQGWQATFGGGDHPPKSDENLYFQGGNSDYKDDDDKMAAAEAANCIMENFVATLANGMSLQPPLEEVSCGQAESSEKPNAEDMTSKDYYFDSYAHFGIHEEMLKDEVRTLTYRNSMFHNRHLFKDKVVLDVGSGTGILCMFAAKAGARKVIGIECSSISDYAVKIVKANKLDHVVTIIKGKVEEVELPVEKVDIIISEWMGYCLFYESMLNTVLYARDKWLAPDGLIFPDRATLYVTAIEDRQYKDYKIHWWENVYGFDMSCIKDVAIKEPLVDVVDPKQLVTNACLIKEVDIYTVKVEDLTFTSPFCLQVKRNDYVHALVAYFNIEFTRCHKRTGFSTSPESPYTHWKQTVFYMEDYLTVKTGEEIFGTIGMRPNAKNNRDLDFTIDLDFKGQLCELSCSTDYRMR

Row | SMILES | IC50 (Full-length human PRMT3) | EC30 [1] | IC50 (Full-length human PRMT6) | IC50 [2]
1 | CC(C)Cc1ccc(-c2n[nH]cc2CN(C)CCN)cc1 [Compound 165] | 1010 to 3000 nM | < 3 µM | – | –
2 | CNCCN(C)Cc1n[nH]cc1-c1ccc(Oc2ccccc2)c(C(=O)N(C)C)c1 [Compound 241] | – | 3.01 to 12 µM | < 100 nM | < 100 nM
